Data reported in article PMC10360169 (Frontiers in Immunology, 2023).

Legend:
Acar3 = type: binding, great reed warbler Acrocephalus arundinaceus; settings: for Stability T½ of Acar3 in complex with the peptide: Table S1, top 94 PSCPL-scoring peptides, SPA, 10µM peptide, 125I β2m, folding over night at 18°C, dissociation measured up to 24 hours at 37°C; for Stability T½ (h), peptide - Acar3: Table S5, half-life estimated from dissociation in scintillation proximity assay
HLA-B*15:01 = HLA-B*15:01 (Homo sapiens, UniProt P01889, A329T/A93T/A95T/C349S/D201E/D98Y/E187L/E204Q/E69M/E70A/K202T/N87E/Q94N/R155S/R180W/S121R/S35A/S48A/V306I/V36M/Y140S/Y91S); design: method as in ref [40]-[42] = [40]; 40 Rasmussen M Harndahl M Kristensen A Nielsen I Jorgensen K Stryhn A . Large Scale analysis of peptide - HLA-I stability . ( 2014 ). || [41]; 41 Harndahl M Lamberth K Justesen S Røder G Madsen M Nielsen M . Large Scale analysis of peptide-HLA class I interactions . ( 2007 ). || [42]; 42 Harndahl M Lamberth K Justesen S Røder G Madsen M Sylvester-Hvid C . Large Scale analysis of peptide-HLA class I interactions . ( 2006 ).; settings: IEDB; threshold minimum affinity of 500 nM or minimum half-life of 1 h; ref [40]-[42]; cited from earlier work
Acar19 = type: binding, great reed warbler Acrocephalus arundinaceus; settings: Table S5, half-life estimated from dissociation in scintillation proximity assay
HLA-A*32:15 = HLA-A*32:15 (Homo sapiens, UniProt P04439, A270S/D101S/D185E/E176V/E277Q/E87N/F133L/G103R/G107R/G231S/H175R/I121M/I218V/I322F/K168Q/L105A/L300P/L318F/M331R/P208A/P217A/Q86R/Q94H/R106L/R138Q/S129P/T104I/T323A/T345S/V100E/V321M/V358M); design: method as in ref [40], [41], [43] = [40]; 40 Rasmussen M Harndahl M Kristensen A Nielsen I Jorgensen K Stryhn A . Large Scale analysis of peptide - HLA-I stability . ( 2014 ). || [41]; 41 Harndahl M Lamberth K Justesen S Røder G Madsen M Nielsen M . Large Scale analysis of peptide-HLA class I interactions . ( 2007 ). || [43]; 43 Harndahl M Lamberth K Røder G Justesen S Madsen M Nielsen M . Large Scale analysis of peptide-HLA class I interactions . ( 2010 ).; settings: IEDB; threshold minimum affinity of 500 nM or minimum half-life of 1 h; ref [40], [41], [43]; cited from earlier work
HLA-B*35:01 = HLA-B*35:01 (Homo sapiens, UniProt P01889, A329T/A93T/A95T/C349S/D201E/D98Y/E176V/E187L/E204Q/E69T/I218V/K202T/L119I/Q94N/R155S/R180L/S121R/S35A/S48A/T118I/V127L/V306I/V36M/Y140S/Y91F); design: method as in ref [40]-[43] = [40]; 40 Rasmussen M Harndahl M Kristensen A Nielsen I Jorgensen K Stryhn A . Large Scale analysis of peptide - HLA-I stability . ( 2014 ). || [41]; 41 Harndahl M Lamberth K Justesen S Røder G Madsen M Nielsen M . Large Scale analysis of peptide-HLA class I interactions . ( 2007 ). || [42]; 42 Harndahl M Lamberth K Justesen S Røder G Madsen M Sylvester-Hvid C . Large Scale analysis of peptide-HLA class I interactions . ( 2006 ). || [43]; 43 Harndahl M Lamberth K Røder G Justesen S Madsen M Nielsen M . Large Scale analysis of peptide-HLA class I interactions . ( 2010 ).; settings: IEDB; threshold minimum affinity of 500 nM or minimum half-life of 1 h; ref [40]-[43]; cited from earlier work
HLA-A*24:02 = HLA-A*24:02 (Homo sapiens, UniProt P04439, D101N/D140Y/D185E/E176V/E190D/F33S/G103R/G107R/I119L/I121M/I306V/K335N/L105A/L180Q/L300P/N151K/N90K/Q86E/Q94H/R106L/R138H/R89G/T104I/T345S/V100E/W191G/Y123F); settings: below the IEDB thresholds; no reference given; cited from earlier work
HLA-A*32:07 = HLA-A*32:07 (Homo sapiens, UniProt P04439, A270S/D101S/D185E/E176V/E277Q/F133L/F33S/G103R/G107R/G231S/H175R/I121M/I218V/I322F/K168Q/L105A/L300P/L318F/M331R/P208A/P217A/Q94H/R106L/R138Q/S129P/T104I/T323A/T345S/V100E/V321M/V358M); design: method as in ref [40], [41], [43] = [40]; 40 Rasmussen M Harndahl M Kristensen A Nielsen I Jorgensen K Stryhn A . Large Scale analysis of peptide - HLA-I stability . ( 2014 ). || [41]; 41 Harndahl M Lamberth K Justesen S Røder G Madsen M Nielsen M . Large Scale analysis of peptide-HLA class I interactions . ( 2007 ). || [43]; 43 Harndahl M Lamberth K Røder G Justesen S Madsen M Nielsen M . Large Scale analysis of peptide-HLA class I interactions . ( 2010 ).; settings: IEDB; threshold minimum affinity of 500 nM or minimum half-life of 1 h; ref [40], [41], [43]; cited from earlier work
HLA-B*58:01 = HLA-B*58:01 (Homo sapiens, UniProt P01889, A329T/C349S/D201E/D98Y/E176V/E187L/E204Q/E69T/G107R/I218V/I90N/K202T/L105A/L119I/N104I/N87E/Q89R/Q94S/R106L/R155S/R180L/R86G/S101N/S121R/S35A/S48A/T118I/V127L/V306I/V36M/Y140S/Y91M); settings: IEDB; threshold minimum affinity of 500 nM or minimum half-life of 1 h; ref [40], [41], [43]; cited from earlier work
HLA-A*68:23 = HLA-A*68:23 (Homo sapiens, UniProt P04439, A269V/D185E/E176V/E277Q/E87N/F33Y/G231S/I121R/I166T/I218V/L180W/L300P/L318F/N151K/P208A/P217A/Q86R/R169H/T345S); design: method as in ref [40], [41], [43] = [40]; 40 Rasmussen M Harndahl M Kristensen A Nielsen I Jorgensen K Stryhn A . Large Scale analysis of peptide - HLA-I stability . ( 2014 ). || [41]; 41 Harndahl M Lamberth K Justesen S Røder G Madsen M Nielsen M . Large Scale analysis of peptide-HLA class I interactions . ( 2007 ). || [43]; 43 Harndahl M Lamberth K Røder G Justesen S Madsen M Nielsen M . Large Scale analysis of peptide-HLA class I interactions . ( 2010 ).; settings: IEDB; threshold minimum affinity of 500 nM or minimum half-life of 1 h; ref [40], [41], [43]; cited from earlier work

Sequence | Stability T½ (h), peptide - Acar19 (Acar19) [h] | further results
AMSAQAAAF [P1] | – | Stability T½ of Acar3 in complex with the peptide (Acar3): 678 min; Stability T½ (h), peptide - Acar3 (Acar3): 11.3 h; binding to HLA-B*15:01 (HLA-B*15:01): binds
DYQGLPLEF [9-mer peptide] | 3.5 | Stability T½ of Acar3 in complex with the peptide (Acar3): 12 min; Stability T½ (h), peptide - Acar3 (Acar3): 0.2 h
MTMITPPTF [P3] | – | binding to HLA-A*32:15 (HLA-A*32:15): binding partners; Stability T½ of Acar3 in complex with the peptide (Acar3): 618 min; Stability T½ (h), peptide - Acar3 (Acar3): 10.3 h; binding to HLA-B*35:01 (HLA-B*35:01): binding partners; binding to HLA-A*24:02 (HLA-A*24:02): weak binding; binding to HLA-A*32:07 (HLA-A*32:07): binding partners; binding to HLA-B*58:01 (HLA-B*58:01): binding partners; binding to HLA-A*68:23 (HLA-A*68:23): binding partners
TRAPAPFPL [9-mer peptide] | 0.1 | Stability T½ (h), peptide - Acar3 (Acar3): 0.1 h
TTLSIYFLL [9-mer peptide] | 0.1 | –
TYMFTHIDL [9-mer peptide] | 0.1 | –
TYSPALNKM [9-mer peptide] | 0.1 | –
VMKRNFIDF [9-mer peptide] | 0.1 | –
VQHNIKHSF [9-mer peptide] | 0.1 | –
VSFSMVGLF [9-mer peptide] | 0.1 | –
VTNRHEEKF [9-mer peptide] | 0.1 | –
WFGHLASDW [9-mer peptide] | 0.1 | –
WYAPVALLF [9-mer peptide] | 0.2 | –
YFDPANGKF [9-mer peptide] | 0.1 | –
YISPIFIPM [9-mer peptide] | 0.1 | –
YNAELLVAL [9-mer peptide] | 0.2 | –
YQAGISAAL [9-mer peptide] | 0.2 | –
YRSMIAFKL [9-mer peptide] | 0.1 | –
YTMELCGAM [9-mer peptide] | 0.1 | –
YTYPIAHTA [9-mer peptide] | 0.1 | –
YYNAFHWAI [9-mer peptide] | 0.4 | –
YYNAFQWAI [9-mer peptide] | 0.4 | –
YYSNKVFPI [9-mer peptide] | 0.2 | –
